Consider 2 compounds from publication PMC5786306, “An AKAP-Lbc-RhoA interaction inhibitor promotes the translocation of aquaporin-2 to the plasma membrane of renal collecting duct principal cells” (PLoS ONE, 2018).

For experiment [1], the target named is T1, AKAP-Lbc/DHPH-induced RhoA activation (Homo sapiens, UniProt P61586).
T1 construct: AKAP-Lbc/DHPH (aa 1923–2336 of human AKAP-Lbc; NP_006729.4, NCBI); made in house; host or cells: E. coli Rosetta (DE3)
Briefly: Guanine nucleotide exchange (GEF) assay with mant-GTP (screen and secondary assays). Type of experiment: biochemical.
Method: Fluorescence was recorded for 15 min in a 384-well plate in a microplate reader (Tecan, Safire; Durham, US) at 440 nm (360 nm excitation wavelength).
For all dispensing and washing steps an EL406 washer/dispenser combination (BioTek Instruments, Bad Friedrichshall, Germany) was used. The screen was performed in a 384-well plate format. […] Z score describes the distance of a sample signal to the mean of all other samples on the plate in units of standard deviation. […] Compound identity and purity of samples used in this secondary screen were validated by mass spectrometric analysis.
The DHPH domain of the RhoA-specific guanine nucleotide exchange factor (GEF) AKAP-Lbc and RhoA were generated as recombinant proteins. The DHPH domain-catalyzed exchange of GDP for the fluorescent mant-GTP was monitored at the emission wavelength of RhoA-bound mant-GTP at 440 nm. (B) The fluorescence signal intensity changes were determined for all samples including positive and negative controls and percent inhibitions calculated based on the controls.

The test system of experiment [2] is AQP2 insertion into the plasma membrane of IMCD cells. As to the kind of experiment: Biotinylation of cell surface proteins. Type of experiment: cell-based, rat. The conditions noted are these: Scaff10-8 30 μM, 1 or 24 h, forskolin 30 μM, 30 min. On the procedure: The assay was performed according to Bogum et al.. IMCD cells were treated with Scaff10-8 at a concentration of 30 μM for 1 or 24 h (0.3% DMSO final concentration). DMSO (0.3%) was used as a control for the 24 h of incubation. Cells were stimulated with forskolin (30 min, 30 μM). Cells were washed twice with ice-cold PBS and incubated with biotinylation buffer (500 μg Biotin per well; 10 mM triethanolamine; 150 mM NaCl; 1 mM MgCl2; 0.1 mM CaCl2; pH 8.0) for 60 min at 4°C. After two washing steps with biotinylation buffer, cells were incubated for 10 min with quenching buffer (50 mM NH4Cl in PBS) at 4°C. Lysates were prepared using biotinylation lysis buffer 1 (SLB; 0.5% Triton X-100; 0.2% BSA; Complete mini EDTA-free). Lysates were sonicated and incubated for 20 min at 37°C. Cell debris was removed by centrifugation (30 min, 15,000x g, 4°C). Lysates were incubated with 80 μl streptavidin agarose beads at 4°C overnight. Beads were washed three times with biotinylation lysis buffer 1 and 2 (SLB; 0.5% Triton X-100; Complete mini EDTA-free). Proteins were eluted using sample buffer and analyzed by Western blotting.
(A) IMCD cells were treated with either compound (30 μM) or DMSO for 1 or 24 h. Membrane proteins were biotinylated followed by precipitation with streptavidin agarose beads. […] (B) Signals from A were quantified by densitometric analysis. […]

In experiment [3] the test system is Rac1 activity in IMCD cells. As to the kind of experiment: PAK-1-PBD pull down, Rac1. In kind it is cell-based, rat. The note with it: 30 μM, 1 h. As for the experimental part: The (p21) binding domain (PBD) of p21 activated kinase 1 protein (PAK-1) spans amino acids 67–150 of PAK-1 and binds specifically to the GTP-bound Rac-1 and Cdc42. The PBD was prepared as described and used for selective precipitation of the activated GTPases from IMCD cells. The PBD was expressed as a GST-fusion protein in DH5α E-coli cells, the cells were lysed using a French press, and the fusion protein was purified with Glutathione Sepharose 4 Fast Flow GST-tagged protein purification resin kit according to the manufacturer’s instructions (GE Healthcare; #17-5132-01). The PAK-1-PBD pull down was carried out with 400–500 μg protein from IMCD cell lysates. Proteins were eluted from the beads by boiling with Laemmli sample buffer, and analyzed by Western blotting. The membranes were first probed for Cdc42, and the GTP-bound active fraction of the protein was related to total Cdc42, and to the loading control GAPDH. The membranes were re-probed for Rac-1 accordingly to determine the active GTP-bound Rac-1 fraction.
Fig 10 Scaff10-8 inhibits activation of RhoA in primary IMCD cells. IMCD cells were incubated with Scaff10-8 (30 μM, 1 h). DMSO (1%), the solvent of Scaff10-8, served as a control. […] Signals were semiquantitatively analyzed by densitometry. […] Statistically significant differences were determined using one-way ANOVA with posthoc Bonferroni. […]

For the next experiment, the target named is GST (Schistosoma japonicum, UniProt P08515). Briefly: ITC control with GST alone. Type of experiment: binding. On the procedure: ITC measurements were essentially carried out as previously described. The stabilizing RhoA mutant F25N [41] was purified as a GST-RhoA fusion in its GDP-bound form (final gel filtration purification step in 20 mM HEPES, pH 7.5, 150 mM NaCl, 2 mM DTT, 50 μM GDP). In order to exchange GDP against GTPγS, GST-RhoA loaded with GDP was incubated for 20 min in ITC nucleotide exchange buffer (50 mM HEPES, pH 7.5, 20 mM EDTA) at 25°C followed by three dilution and concentration steps in Amicon tubes (10,000 MWCO) using ITC dialysis buffer (50 mM HEPES, pH 7.4, 150 mM NaCl, 5 mM MgCl2, 2 mM β-mercaptoethanol). The nucleotide-loading state was confirmed by HPLC. All proteins used in ITC measurements were dialyzed overnight against ITC dialysis buffer. Protein concentrations were determined with NanoDrop ND-1000. GDP or GTPγS (final concentration 2 mM) and DMSO (2%) were added to the proteins prior to the ITC measurements. Scaff10-8 was dissolved in the same buffer (including 2% DMSO and 2 mM GDP or GTPγS). ITC measurements were performed on a VP-ITC (GE Healthcare, München, DE) at 15°C. Titrations were conducted using 14.8 μM Scaff10-8 in the cell and 235 μM (GST control), 222 μM (GST-RhoA, GDP-bound) or 210 μM (GST-RhoA, GTPγS-bound) in the syringe. The cell was stirred at 351 rpm and a total of 27 x 10 μl injections were added to the cell, separated by 240 s of equilibration. […]
Sequence of GST (P08515 whole entry, the tested form may be a part): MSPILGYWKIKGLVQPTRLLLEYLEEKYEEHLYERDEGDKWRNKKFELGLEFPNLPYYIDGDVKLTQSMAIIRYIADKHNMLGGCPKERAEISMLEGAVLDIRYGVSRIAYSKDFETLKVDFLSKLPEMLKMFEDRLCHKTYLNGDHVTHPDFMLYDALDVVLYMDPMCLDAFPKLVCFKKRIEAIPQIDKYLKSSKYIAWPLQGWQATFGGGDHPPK

T1 sequence (P61586 whole entry, the tested form may be a part): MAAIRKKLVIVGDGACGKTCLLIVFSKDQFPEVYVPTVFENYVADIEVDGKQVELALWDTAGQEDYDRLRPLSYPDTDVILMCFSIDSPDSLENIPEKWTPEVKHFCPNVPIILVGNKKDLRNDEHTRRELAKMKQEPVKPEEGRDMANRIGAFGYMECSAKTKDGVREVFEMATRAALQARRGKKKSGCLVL

For orientation: IC50 means the midpoint of a concentration-inhibition curve. Read a high IC50 as lower potency. As to `COc1ccc(-c2coc3cc4oc(=O)c(C)c(C)c4cc23)cc1` [Scaff10, 3-(4-Methoxyphenyl)-5,6-dimethyl-furo[3,2-g]chromen-7-one], in experiment [1], the IC50 came out at 26 µM. Besides, in experiment [1] (Suppl. Tab. 2, screening data), the ResidualPercentActivity is on record as -9.0% and the z_score is recorded as -9.0.
Consider `COc1ccc(-c2coc3cc4oc(=O)c(CCC(=O)O)c(C)c4cc23)cc1` [Scaff10-8, 3-[3-(4-Methoxyphenyl)-5-methyl-7-oxo-furo[3,2-g]chromen-6-yl] propanoic acid], for which, in experiment [2], the “insertion of AQP2 into the plasma membrane” value is reported as “does not promote the insertion of AQP2”. Also, in experiment [3], the “activity of Rac1” value is listed as “did not influence activities”. Also, the “binding to GST control” value on GST was “did not bind”.
